Experimental data published in US20120245137A1 (Zalicus Pharmaceuticals Ltd., priority 2009, published 2012).
Where two headings read alike, the source gives them in different places.

Assays:
Format in all cases: cell-based
T-type calcium channel [1] = target: T-type calcium channel (Homo sapiens, UniProt O95180); experiment: T-type channel blocking, FLIPR data (Table 6)
Description: (§1) Another method, high-throughput spectrophotometric assay, utilizes loading of the cell lines with a fluorescent dye sensitive to intracellular calcium concentration and subsequent examination of the effects of compounds on the ability of depolarization by potassium chloride or other means to alter intracellular calcium levels.

T-type calcium channel [2] = target: T-type calcium channel (Homo sapiens, UniProt O43497); experiment: T-type channel blocking, FLIPR data (Table 6); conditions: CAv3.1
Description: as §1

Human Cav 2.2 channels = Human Cav 2.2 channels (Homo sapiens, UniProt Q00975); experiment: Fluorescent assay for CaV2.2 channels using potassium depolarization (VIPR/FLIPR); conditions: FLIPR data
Outline: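 Fluo-4 calcium fluorescence (480/535 nm) was recorded on VIPR or FLIPR after depolarization to 70 mM final potassium. Before this, cells were preincubated 30 min at 25 °C with compound in 4–30 mM potassium, so that state-dependent block could be assessed; the cells were HEK293 coexpressing Cav2.2, α2δ, β and Kir2.3.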

CAv1.2 = CAv1.2 (Homo sapiens, UniProt Q13936); experiment: FLIPR data, CAv1.2 channel blocking (Table 6); conditions: for CAv1.2 IC50 Ratio closed/inact.: ratio closed/inactivated IC50
[3] = CAv3.2, closed state, read-out: CAv3.2 IC50 Closed
[4] = CAv3.2, inactivated state, read-out: CAv3.2 IC50 Inact.
[5] = CAv3.2, ratio closed/inactivated IC50
[6] = closed state, read-out: CAv2.2 IC50 Closed
[7] = inactivated state, read-out: CAv2.2 IC50 Inact.
[8] = closed state, read-out: CAv1.2 IC50 Closed
[9] = inactivated state, read-out: CAv1.2 IC50 Inact.

Human Cav 2.2 channels, sequence (Q00975 whole entry): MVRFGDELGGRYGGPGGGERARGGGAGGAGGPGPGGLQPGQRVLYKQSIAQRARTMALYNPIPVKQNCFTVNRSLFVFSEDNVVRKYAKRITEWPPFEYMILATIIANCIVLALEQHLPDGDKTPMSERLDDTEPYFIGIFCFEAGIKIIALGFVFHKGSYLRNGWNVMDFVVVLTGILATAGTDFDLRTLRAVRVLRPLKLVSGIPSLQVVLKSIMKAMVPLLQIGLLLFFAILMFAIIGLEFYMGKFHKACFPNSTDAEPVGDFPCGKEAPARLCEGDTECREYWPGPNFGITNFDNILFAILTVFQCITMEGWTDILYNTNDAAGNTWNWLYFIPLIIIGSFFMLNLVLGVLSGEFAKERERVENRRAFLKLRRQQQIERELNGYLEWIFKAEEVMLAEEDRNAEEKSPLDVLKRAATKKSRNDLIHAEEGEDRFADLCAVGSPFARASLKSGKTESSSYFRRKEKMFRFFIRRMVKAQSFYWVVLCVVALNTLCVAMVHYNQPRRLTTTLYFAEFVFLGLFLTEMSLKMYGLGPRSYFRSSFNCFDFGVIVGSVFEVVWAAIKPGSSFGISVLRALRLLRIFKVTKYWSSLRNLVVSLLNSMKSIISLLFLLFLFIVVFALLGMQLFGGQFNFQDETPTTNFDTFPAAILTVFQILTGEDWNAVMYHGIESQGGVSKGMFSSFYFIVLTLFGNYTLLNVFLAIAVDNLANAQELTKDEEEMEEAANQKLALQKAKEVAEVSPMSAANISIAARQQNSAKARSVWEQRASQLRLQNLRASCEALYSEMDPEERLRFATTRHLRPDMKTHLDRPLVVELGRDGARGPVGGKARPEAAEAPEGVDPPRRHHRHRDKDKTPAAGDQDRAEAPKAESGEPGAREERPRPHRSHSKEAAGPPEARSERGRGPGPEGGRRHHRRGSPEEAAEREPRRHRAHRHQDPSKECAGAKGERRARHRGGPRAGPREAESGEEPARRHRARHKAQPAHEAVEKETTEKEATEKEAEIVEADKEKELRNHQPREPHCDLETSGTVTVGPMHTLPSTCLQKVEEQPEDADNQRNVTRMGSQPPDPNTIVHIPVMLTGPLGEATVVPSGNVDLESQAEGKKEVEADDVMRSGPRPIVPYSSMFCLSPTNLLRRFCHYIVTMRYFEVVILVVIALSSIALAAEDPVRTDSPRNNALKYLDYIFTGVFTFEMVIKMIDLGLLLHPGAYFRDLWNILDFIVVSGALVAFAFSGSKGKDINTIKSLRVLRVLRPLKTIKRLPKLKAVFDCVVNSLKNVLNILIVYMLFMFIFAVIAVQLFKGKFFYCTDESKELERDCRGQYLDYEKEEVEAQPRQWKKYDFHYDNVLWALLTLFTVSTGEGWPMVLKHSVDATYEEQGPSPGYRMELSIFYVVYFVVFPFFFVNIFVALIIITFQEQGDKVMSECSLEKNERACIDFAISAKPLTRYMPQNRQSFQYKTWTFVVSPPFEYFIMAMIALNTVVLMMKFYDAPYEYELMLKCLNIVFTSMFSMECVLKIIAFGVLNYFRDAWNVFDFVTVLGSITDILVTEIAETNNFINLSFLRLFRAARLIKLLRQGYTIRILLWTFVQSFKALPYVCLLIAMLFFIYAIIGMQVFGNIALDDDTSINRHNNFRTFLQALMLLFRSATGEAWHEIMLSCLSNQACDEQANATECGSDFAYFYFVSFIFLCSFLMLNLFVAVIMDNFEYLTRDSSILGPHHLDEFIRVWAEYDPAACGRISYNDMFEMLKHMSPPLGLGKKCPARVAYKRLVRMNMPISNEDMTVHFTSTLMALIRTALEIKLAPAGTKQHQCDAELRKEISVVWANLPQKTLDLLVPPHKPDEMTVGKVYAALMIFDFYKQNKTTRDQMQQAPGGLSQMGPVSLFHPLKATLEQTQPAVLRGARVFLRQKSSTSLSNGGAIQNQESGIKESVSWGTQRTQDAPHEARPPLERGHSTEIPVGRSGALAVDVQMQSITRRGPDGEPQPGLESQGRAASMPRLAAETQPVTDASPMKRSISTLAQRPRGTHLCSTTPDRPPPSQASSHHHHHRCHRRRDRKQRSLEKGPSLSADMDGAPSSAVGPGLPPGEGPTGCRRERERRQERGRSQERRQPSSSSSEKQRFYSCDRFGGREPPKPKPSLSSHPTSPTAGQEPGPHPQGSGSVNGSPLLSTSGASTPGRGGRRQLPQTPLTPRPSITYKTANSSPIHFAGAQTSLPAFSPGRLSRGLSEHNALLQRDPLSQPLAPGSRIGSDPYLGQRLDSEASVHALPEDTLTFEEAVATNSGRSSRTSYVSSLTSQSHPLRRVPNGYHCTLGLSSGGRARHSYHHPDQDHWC
Human Cav 2.2 channels, sequence (P54289 25-1103 partner): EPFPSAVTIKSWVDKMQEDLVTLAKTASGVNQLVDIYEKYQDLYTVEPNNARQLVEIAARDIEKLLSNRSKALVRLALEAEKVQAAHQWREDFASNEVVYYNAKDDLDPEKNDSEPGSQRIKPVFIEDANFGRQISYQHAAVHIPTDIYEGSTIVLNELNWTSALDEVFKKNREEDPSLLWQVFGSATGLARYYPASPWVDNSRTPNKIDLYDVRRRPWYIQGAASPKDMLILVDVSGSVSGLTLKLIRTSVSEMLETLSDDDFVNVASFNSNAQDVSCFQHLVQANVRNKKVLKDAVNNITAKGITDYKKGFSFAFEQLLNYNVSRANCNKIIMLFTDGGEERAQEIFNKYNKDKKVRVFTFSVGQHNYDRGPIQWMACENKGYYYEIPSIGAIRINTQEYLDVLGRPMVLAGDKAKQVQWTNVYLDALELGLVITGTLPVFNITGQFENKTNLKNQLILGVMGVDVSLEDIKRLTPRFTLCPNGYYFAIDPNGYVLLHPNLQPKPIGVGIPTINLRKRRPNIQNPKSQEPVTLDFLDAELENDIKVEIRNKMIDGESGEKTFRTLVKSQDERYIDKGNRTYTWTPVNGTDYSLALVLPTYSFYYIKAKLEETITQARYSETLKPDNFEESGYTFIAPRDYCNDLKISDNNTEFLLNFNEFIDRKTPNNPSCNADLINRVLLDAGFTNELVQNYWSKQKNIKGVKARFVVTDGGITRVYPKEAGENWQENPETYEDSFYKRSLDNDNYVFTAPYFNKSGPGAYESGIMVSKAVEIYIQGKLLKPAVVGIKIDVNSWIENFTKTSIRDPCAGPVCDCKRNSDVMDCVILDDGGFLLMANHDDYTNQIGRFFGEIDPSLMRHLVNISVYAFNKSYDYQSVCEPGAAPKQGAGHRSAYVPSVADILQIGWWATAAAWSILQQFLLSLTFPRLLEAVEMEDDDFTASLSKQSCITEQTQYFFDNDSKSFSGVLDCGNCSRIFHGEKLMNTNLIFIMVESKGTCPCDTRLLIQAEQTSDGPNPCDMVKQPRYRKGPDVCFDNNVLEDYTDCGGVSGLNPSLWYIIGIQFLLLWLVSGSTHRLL
Human Cav 2.2 channels, sequence (P54284 whole entry partner): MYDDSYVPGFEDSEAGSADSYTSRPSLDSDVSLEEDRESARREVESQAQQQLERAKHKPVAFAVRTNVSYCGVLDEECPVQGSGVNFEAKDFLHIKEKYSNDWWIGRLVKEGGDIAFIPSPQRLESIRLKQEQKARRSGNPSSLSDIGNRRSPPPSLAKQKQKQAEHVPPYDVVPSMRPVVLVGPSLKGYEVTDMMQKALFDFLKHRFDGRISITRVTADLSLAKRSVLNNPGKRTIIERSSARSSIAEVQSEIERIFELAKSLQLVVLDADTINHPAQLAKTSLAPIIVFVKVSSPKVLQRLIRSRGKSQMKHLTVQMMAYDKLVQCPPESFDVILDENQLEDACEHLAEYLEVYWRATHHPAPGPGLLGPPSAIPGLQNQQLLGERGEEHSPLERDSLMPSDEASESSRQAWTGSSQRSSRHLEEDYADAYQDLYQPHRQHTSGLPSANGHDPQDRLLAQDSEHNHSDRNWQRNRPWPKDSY

IC50 (T-type calcium channel [1]; [3])	IC50 (T-type calcium channel [1]; [4])	CAv3.2 IC50 Ratio closed/inact. (T-type calcium channel [1]; [5])	IC50 (T-type calcium channel [2])	IC50 (Human Cav 2.2 channels; [6])	IC50 (Human Cav 2.2 channels; [7])	CAv2.2 IC50 Ratio closed/inact. (Human Cav 2.2 channels; ratio closed/inactivated IC50)	CAv3.2 IC50 Ratio closed/inact. (T-type calcium channel [1]; CAv3.2, ratio closed/inact.)	CAv2.2 IC50 Ratio closed/inact. (Human Cav 2.2 channels; ratio closed/inact.)	Compound	IC50 (CAv1.2; [8])	IC50 (CAv1.2; [9])	CAv1.2 IC50 Ratio closed/inact. (CAv1.2)
≥ 10 µM	9.9 µM	1	≥ 10 µM	8.56 µM	0.44 µM	19.5			CC(C)([C@H]1C[C@@H](NC(=O)c2ccc(C(F)(F)F)nc2)C1)S(=O)(=O)c1cccc(C(F)(F)F)c1 [Compound 576]	≥ 10 µM	9.62 µM	1
≥ 10 µM	10 µM	1	≥ 10 µM	10 µM	0.66 µM	15.2			CC(C)([C@H]1C[C@@H](NC(=O)c2cnc(C(F)(F)F)nc2)C1)S(=O)(=O)c1cccc(C(F)(F)F)c1 [Compound 579]	≥ 10 µM	9.95 µM	1
			≥ 10 µM	10 µM	1.7 µM	5.9			CC(C)([C@H]1C[C@@H](NC(=O)c2ncc(C(F)(F)F)cc2S(C)(=O)=O)C1)S(=O)(=O)c1cc(F)cc(C(F)(F)F)c1 [Compound 584]	≥ 10 µM	≥ 10 µM	
≥ 10 µM	10 µM	1	≥ 10 µM	10 µM	0.48 µM	20.8			CC(C)S(=O)(=O)c1cc(C(F)(F)F)cnc1C(=O)N[C@H]1C[C@@H](C(C)(C)S(=O)(=O)c2cc(F)cc(C(F)(F)F)c2)C1 [Compound 586]	≥ 10 µM	9.37 µM	1.1
6.56 µM	3.6 µM	1.8	≥ 10 µM	5.55 µM	0.72 µM	7.7			CC(C)([C@H]1C[C@@H](NC(=O)c2cc(C(F)(F)F)n[nH]2)C1)S(=O)(=O)c1cc(F)cc(C(F)(F)F)c1 [Compound 587]	≥ 10 µM	4.85 µM	2.1
4.14 µM	1.07 µM	3.9	4.03 µM	2.37 µM	0.27 µM	8.8			CC(C)([C@H]1C[C@@H](NC(=O)c2ccc(Cl)c(F)c2)C1)S(=O)(=O)c1cc(F)cc(C(F)(F)F)c1 [Compound 589]	4.91 µM	1.8 µM	2.7
4.3 µM	1.37 µM	3.1	6.85 µM	2.83 µM	0.34 µM	8.3			CC(C)([C@H]1C[C@@H](NC(=O)c2ccc(F)c(Cl)c2)C1)S(=O)(=O)c1cc(F)cc(C(F)(F)F)c1 [Compound 590]	5.33 µM	1.7 µM	3.1
			≥ 10 µM	10 µM	1.15 µM	8.7			CC(C)([C@H]1C[C@H](NC(=O)c2ncc(C(F)(F)F)cc2S(C)(=O)=O)C1)S(=O)(=O)c1cc(F)cc(C(F)(F)F)c1 [Compound 591]		≥ 10 µM	
≥ 10 µM	10.4 µM	1	≥ 10 µM	10 µM	0.16 µM	62.5			CC(C)S(=O)(=O)c1cc(C(F)(F)F)cnc1C(=O)N[C@H]1C[C@H](C(C)(C)S(=O)(=O)c2cc(F)cc(C(F)(F)F)c2)C1 [Compound 593]	≥ 10 µM	7.86 µM	1.3
9.23 µM	2.35 µM		≥ 10 µM	6.08 µM	0.52 µM	11.7			CC(C)([C@H]1C[C@H](NC(=O)c2cc(C(F)(F)F)n[nH]2)C1)S(=O)(=O)c1cc(F)cc(C(F)(F)F)c1 [Compound 594]			
≥ 10 µM	9.83 µM	1	≥ 10 µM	3.63 µM	0.21 µM	17.3			CC(C)([C@H]1C[C@H](NC(=O)c2ccnc(C(F)(F)F)n2)C1)S(=O)(=O)c1cc(F)cc(C(F)(F)F)c1 [Compound 595]	≥ 10 µM	≥ 10 µM	
3.13 µM	1.11 µM	2.8	9.74 µM	1.73 µM	0.26 µM	6.7			CC(C)([C@H]1C[C@H](NC(=O)c2ccc(Cl)c(F)c2)C1)S(=O)(=O)c1cc(F)cc(C(F)(F)F)c1 [Compound 596]	3.63 µM	1.43 µM	2.5
3.12 µM	1.21 µM	2.6	3.8 µM	1.43 µM	0.17 µM	8.4			CC(C)([C@H]1C[C@H](NC(=O)c2ccc(F)c(Cl)c2)C1)S(=O)(=O)c1cc(F)cc(C(F)(F)F)c1 [Compound 597]	3.7 µM	0.86 µM	4.3
≥ 10 µM	4.56 µM	2.2	7.56 µM	5.74 µM	0.7 µM	8.2			CC(C)([C@H]1C[C@@H](NS(=O)(=O)c2ccc(C(F)(F)F)cc2)C1)S(=O)(=O)c1cc(F)cc(C(F)(F)F)c1 [Compound 598]	9.38 µM	2.83 µM	3.3

The next lines start with the compound.

Compound	IC50 (T-type calcium channel [1]; [3])	IC50 (T-type calcium channel [1]; [4])	CAv3.2 IC50 Ratio closed/inact. (T-type calcium channel [1]; [5])	IC50 (T-type calcium channel [2])	IC50 (Human Cav 2.2 channels; [6])	IC50 (Human Cav 2.2 channels; [7])	CAv2.2 IC50 Ratio closed/inact. (Human Cav 2.2 channels; ratio closed/inactivated IC50)	CAv3.2 IC50 Ratio closed/inact. (T-type calcium channel [1]; CAv3.2, ratio closed/inact.)	CAv2.2 IC50 Ratio closed/inact. (Human Cav 2.2 channels; ratio closed/inact.)	IC50 (CAv1.2; [8])	IC50 (CAv1.2; [9])	CAv1.2 IC50 Ratio closed/inact. (CAv1.2)
O=C(NC[C@H]1C[C@H](S(=O)(=O)c2cccc(C(F)(F)F)c2)C1)c1ccc(C(F)(F)F)nc1 [Compound 571]	≥ 10 µM	10 µM	1	≥ 10 µM	10 µM	0.42 µM	23.8			≥ 10 µM	≥ 10 µM	
O=C(NC[C@H]1C[C@H](S(=O)(=O)c2cccc(C(F)(F)F)c2)C1)c1ccc(C(F)(F)F)cc1 [Compound 572]	2.6 µM	1.68 µM	1.5	8.16 µM	3.54 µM	0.27 µM	13.1			7.35 µM	3.01 µM	2.4
CC(C)([C@H]1C[C@@H](NC(=O)c2ccc(C(F)(F)F)cn2)C1)S(=O)(=O)c1cccc(C(F)(F)F)c1 [Compound 575]	5.72 µM	4.45 µM	1.3	≥ 10 µM	3.21 µM	0.28 µM	11.5			7.52 µM	5.36 µM	1.4
CC(C)([C@H]1C[C@@H](NC(=O)c2ccc(Cl)cn2)C1)S(=O)(=O)c1cccc(C(F)(F)F)c1 [Compound 578]	7.71 µM	5.3 µM	1.5	≥ 10 µM	3.46 µM	0.46 µM	7.5			9.07 µM	8.38 µM	1.1
CC(C)([C@H]1C[C@@H](NC(=O)c2ccc(Cl)cc2S(C)(=O)=O)C1)S(=O)(=O)c1cccc(C(F)(F)F)c1 [Compound 580]	≥ 10 µM	10 µM	1	≥ 10 µM	10 µM	0.26 µM	38.5			≥ 10 µM	≥ 10 µM	
CC(C)([C@H]1C[C@@H](NC(=O)c2ccc(C(F)(F)F)cc2)C1)S(=O)(=O)c1cccc(C(F)(F)F)c1 [Compound 581]	3.07 µM	0.66 µM	4.7	4.84 µM	2.43 µM	0.13 µM	18.7			3.87 µM	1.48 µM	2.6
CC(C)([C@H]1C[C@@H](NC(=O)c2ccc(OCC(F)(F)F)nc2)C1)S(=O)(=O)c1cccc(C(F)(F)F)c1 [Compound 582]	4.35 µM	1.31 µM	3.3	≥ 10 µM	2.88 µM	0.19 µM	15.2			5.77 µM	2.06 µM	2.8
N[C@H]1CCCCC1C(=O)NC[C@H]1C[C@H](S(=O)(=O)c2cc(F)cc(C(F)(F)F)c2)C1 (stereo partly shown) [Compound 711]		10 µM		≥ 10 µM	10 µM	5.16 µM	1.9					
NC1(CC(=O)N2CC(CS(=O)(=O)c3cc(F)cc(C(F)(F)F)c3)C2)CCCCC1 [Compound 749]	≥ 10 µM	10 µM		≥ 10 µM		≥ 10 µM		1				
CC(C)([C@H]1C[C@@H](CNc2ccc(Cl)c(F)c2)C1)S(=O)(=O)c1cccc(C(F)(F)F)c1 [Compound 754]		10 µM		≥ 10 µM		7.22 µM			1.4			
